One assay addresses T1, EP4 (Homo sapiens, UniProt P35408).
T1 construct: BT549 breast cancer cells, express high endogenous EP4 levels and very low EP2 levels; host or cells: BT549 breast cancer cells
The assay can be described thus: hEP4 cAMP Assay (BT549 breast cancer cells, HTRF cAMP, PGE2 6 nM). It counts as cell-based. To be noted: antagonistic activity, PGE2 6 nM (EC80). Here is the method:
(§1) The antagonistic activities of the compounds of formula (I) on the EP2 and EP4 receptors are also determined in accordance with the following experimental method.
(§2) Human tumor cell lines expressing endogenously either EP4 or EP2 are used and cAMP accumulation in cells upon PGE2 stimulation is monitored. SF295 glioblastoma cells express high endogenous EP2 and no EP4, whereas BT549 breast cancer cells, express high endogenous EP4 levels and very low EP2 levels.
(§3) As a detection method for cAMP the HTRF (homogeneous time resolved fluorescence) Cisbio kit (HTRF cAMP dynamic 2 kit 20′000 tests Cisbio Cat. #62AM4PEC) was used, which is based on a competitive immunoassay using a Cryptate-labeled anti-cAMP antibody and d2-labeled cAMP. Native cAMP produced by cells or unlabeled cAMP (for the standard curve) compete with exogenously added d2-labeled cAMP (acceptor) for binding to monoclonal anti-cAMP-Eu3+Cryptate (donor). A FRET signal (Fluorescence Resonance Energy Transfer) is obtained only if the labeled anti-cAMP antibody binds the d2 labelled cAMP, thus the specific signal (i.e. energy transfer) is inversely proportional to the concentration of cAMP in the standard or sample.
The BT549 cells (NCI/No. 0507282) are detached from culture dishes with a cell dissociation buffer (Invitrogen, 13151-014), and collected in growing medium (GM: RPMI1640 (Invitrogen 21875)/10% FCS, 1% Penicilin/streptomycin). Cells are counted washed and resuspended in assay buffer (AB; HBSS, 20 mM HEPES, 0.2% BSA; 2 mM IBMX). 4′000 cells in 5 μL of AB are seeded per well of a small volume 384 well plate (black with flat bottom, Greiner 784076).
(§4) Stock solutions of test compounds are made at a concentration of 10 mM in DMSO, and serially diluted in DMSO to concentrations required for inhibition dose response curves (tested concentration range 30 μM-0.4 nM; 30 μM-0.015 nM or 1 μM-0.01 nM).
PGE2 (Cayman 14010, stock solution: 6 uM in DMSO) is used as agonist at 6 nM final concentration, corresponding to EC80.
2.5 μL of diluted compounds are transferred into the assay plate. Plate is pre-incubated 45 minutes at room temperature. Subsequently, 2.5 μL of PGE2 (final conc. 6 nM) are transferred into the assay plate. Plate is incubated 30 minutes at room temperature. 5 μL of each donor (anti-cAMP cryptate) and acceptor (cAMP-d2) are added and the plate is incubated another hour at room temperature in the dark and then read using a BMG LABTECH PHERAstar reader (Excitation: 337 nm, Emission: 620 and 665 nm).
(§5) The obtained Delta F (fluorescence) values (665 nm/620 nM) are converted into % cAMP values using the measurements of the cAMP calibrator provided in the kit. For each compound concentration the percentage of cAMP compared to DMSO control value as average ±STDEV (each concentration is measured in duplicate) is calculated.
(§6) IC50 values and curves are generated with XLfit software (IDBS) using Dose-Response One Site model 203. When compounds were measured multiple times, mean values are given.

The target in the next assay is T2, EP2 (Homo sapiens, UniProt P43116).
T2 construct: SF295 glioblastoma cells express high endogenous EP2 and no EP4; host or cells: SF295 glioblastoma cells
T2 sequence (P43116 whole entry): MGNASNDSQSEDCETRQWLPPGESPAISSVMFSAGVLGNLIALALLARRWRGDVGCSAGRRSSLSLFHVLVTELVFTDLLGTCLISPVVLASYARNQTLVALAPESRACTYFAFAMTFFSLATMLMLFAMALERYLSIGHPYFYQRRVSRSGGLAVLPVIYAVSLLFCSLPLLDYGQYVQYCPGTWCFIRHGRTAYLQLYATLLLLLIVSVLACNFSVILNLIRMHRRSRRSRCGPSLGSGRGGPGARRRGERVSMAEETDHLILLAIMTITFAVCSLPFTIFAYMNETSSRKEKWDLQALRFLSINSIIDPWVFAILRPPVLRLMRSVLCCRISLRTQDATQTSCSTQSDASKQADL
Kind of assay: hEP2 cAMP Assay (SF295 glioblastoma cells, HTRF cAMP, PGE2 75 nM). It counts as cell-based. To be noted: antagonistic activity, PGE2 75 nM (EC80). Here is the method:
as §1, §2, §3
The SF295 cells (NCI/No. 0503170) are detached from culture dishes with a cell dissociation buffer (Invitrogen, 13151-014), and collected in growing medium (GM: RPM11640 (Invitrogen 21875)/10% FCS, 1% Penicilin/streptomycin). Cells are counted washed and resuspended in assay buffer (AB; HBSS, 20 mM HEPES, 0.2% BSA; 2 mM IBMX). 4′000 cells in 5 μL of AB are seeded per well of a small volume 384 well plate (black with flat bottom, Greiner 784076).
as §4
PGE2 (Cayman 14010, stock solution: 75 μM in DMSO) is used as agonist at 75 nM final concentration, corresponding to EC80.
2.5 μL of diluted compounds are transferred into the assay plate. Plate is pre-incubated 45 minutes at room temperature. Subsequently, 2.5 μL of PGE2 (final conc. 75 nM) are transferred into the assay plate. Plate is incubated 30 minutes at room temperature. Five μL of each donor (anti-cAMP cryptate) and acceptor (cAMP-d2) are added and the plate is incubated another hour at room temperature in the dark and then read using a BMG LABTECH PHERAstar reader (Excitation: 337 nm, Emission: 620 and 665 nm).
as §5, §6
(In general: TR-FRET usually uses a lanthanide donor and a delayed reading to cut background.)

T1 sequence (P35408 whole entry): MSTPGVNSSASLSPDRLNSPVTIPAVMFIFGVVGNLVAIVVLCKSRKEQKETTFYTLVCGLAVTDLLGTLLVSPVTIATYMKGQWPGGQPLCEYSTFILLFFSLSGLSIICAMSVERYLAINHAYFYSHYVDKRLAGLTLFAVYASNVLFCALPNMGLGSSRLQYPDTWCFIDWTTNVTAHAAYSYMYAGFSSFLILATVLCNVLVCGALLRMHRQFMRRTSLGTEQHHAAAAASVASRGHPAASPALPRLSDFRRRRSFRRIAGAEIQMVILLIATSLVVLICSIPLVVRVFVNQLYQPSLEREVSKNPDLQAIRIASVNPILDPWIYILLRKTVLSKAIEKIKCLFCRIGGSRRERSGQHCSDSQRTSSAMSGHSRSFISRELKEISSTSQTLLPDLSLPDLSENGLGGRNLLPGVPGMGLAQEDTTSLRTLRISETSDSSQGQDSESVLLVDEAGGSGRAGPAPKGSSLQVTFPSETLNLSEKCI

As to “5-{6-[2-(6-Fluoro-2-methoxy-quinolin-8-yl)-ethylamino]-pyrimidin-4-yl}-3-trifluoromethyl-thiophene-2-carboxylic acid [Example 153]”, the half-inhibitory concentration (IC50) at EP4 turned out to be 283 nM; at EP2, 438 nM.

`CCOc1cc(-c2cc(NCCc3c(Br)ccc4ccccc34)ncn2)sc1C(=O)O` [Example 10, 5-{6-[2-(2-Bromo-naphthalen-1-yl)-ethylamino]-pyrimidin-4-yl}-3-ethoxy-thiophene-2-carboxylic acid]: the values for the 50% inhibitory concentration (IC50) against EP4 and against EP2 were 22 nM and 5 nM, respectively.

On to `CCOc1cc(-c2cc(NCCc3c(C)c(C)cc4ccccc34)ncn2)ccc1C(=O)O` [Example 11, 4-{6-[2-(2,3-Dimethyl-naphthalen-1-yl)-ethylamino]-pyrimidin-4-yl}-2-ethoxy-benzoic acid], for which the figures for the IC50 against EP4 and at EP2 were 885 nM and 261 nM, respectively.

For the compound `O=C(O)c1ccc(-c2cc(NCCc3cccc4cccnc34)ncn2)cc1OC1CCC1` [Example 22, 2-Cyclobutoxy-4-[6-(2-quinolin-8-yl-ethylamino)-pyrimidin-4-yl]-benzoic acid], the half-maximal inhibitory concentration (IC50) was 613 nM at EP4 and 949 nM on EP2.

For `CCOc1cc(-c2cc(NCCc3cccc4c3OCO4)ncn2)sc1C(=O)O` [Example 36, 5-[6-(2-Benzo[1,3]dioxol-4-yl-ethylamino)-pyrimidin-4-yl]-3-ethoxy-thiophene-2-carboxylic acid], the half-inhibitory concentration (IC50) on EP4 is 368 nM; at EP2 it was 262 nM.

On to `CCCOc1ccc2ccccc2c1CCNc1cc(-c2cc(OCC)c(C(=O)O)s2)ncn1` [Example 38, 3-Ethoxy-5-{6-[2-(2-propoxy-naphthalen-1-yl)-ethylamino]-pyrimidin-4-yl}-thiophene-2-carboxylic acid], for which the values for the half-maximal inhibitory concentration (IC50) on EP4 and against EP2 were 48 nM and 22 nM, respectively.

`CCOc1cc(-c2cc(NCCc3cc(OC)cc4ccccc34)ncn2)ccc1C(=O)O` [Example 40, 2-Ethoxy-4-{6-[2-(3-methoxy-naphthalen-1-yl)-ethylamino]-pyrimidin-4-yl}-benzoic acid]: the IC50 at EP4 was 853 nM; against EP2, 525 nM.

As for `COc1cc(CCNc2cc(-c3ccc(C(=O)O)c(OC4CCC4)c3)ncn2)c2ccccc2c1` [Example 41, 2-Cyclobutoxy-4-{6-[2-(3-methoxy-naphthalen-1-yl)-ethylamino]-pyrimidin-4-yl}-benzoic acid], the IC50 is 711 nM against EP4 and 297 nM at EP2.

For `COc1ccc2c(c1CCNc1cc(-c3ccc(C(=O)O)c(OC4CCC4)c3)ncn1)OCO2` [Example 43, 2-Cyclobutoxy-4-{6-[2-(5-methoxy-benzo[1,3]dioxol-4-yl)-ethylamino]-pyrimidin-4-yl}-benzoic acid], the IC50 on EP4 was 797 nM; at EP2 it was 252 nM.

Consider `CCOc1cc(-c2cc(NCCc3cccc4ccn(C)c34)ncn2)ccc1OCC(=O)O` [Example 50, (2-Ethoxy-4-{6-[2-(1-methyl-1H-indol-7-yl)-ethylamino]-pyrimidin-4-yl}-phenoxy)-acetic acid], for which the figures for the half-inhibitory concentration (IC50) against EP4 and on EP2 were 631 nM and 399 nM, respectively.

Regarding `CCOc1cc(-c2cc(NCCc3cccc4ccoc34)ncn2)ccc1OCC(=O)O` [Example 51], the IC50 came out at 853 nM against EP4 and 473 nM against EP2.

Turning to `COc1ccc2c(OC)cccc2c1CCNc1cc(-c2ccc(C(=O)O)c(OC3CCC3)c2)ncn1` [Example 52, 2-Cyclobutoxy-4-{6-[2-(2,5-dimethoxy-naphthalen-1-yl)-ethylamino]-pyrimidin-4-yl}-benzoic acid], the half-maximal inhibitory concentration (IC50) on EP4 turned out to be 758 nM; against EP2, 779 nM.

With `CCOc1cc(-c2cc(NCCc3c(OC)ccc4c(OC)cccc34)ncn2)ccc1C(=O)O` [Example 54, 4-{6-[2-(2,5-Dimethoxy-naphthalen-1-yl)-ethylamino]-pyrimidin-4-yl}-2-ethoxy-benzoic acid], the half-maximal inhibitory concentration (IC50) amounted to 420 nM at EP4 and 878 nM against EP2.

Regarding `CCOc1cc(-c2cc(NCCc3c(OC)ccc4c(OC)cccc34)ncn2)ccc1OCC(=O)O` [Example 55, (4-{6-[2-(2,5-Dimethoxy-naphthalen-1-yl)-ethylamino]-pyrimidin-4-yl}-2-ethoxy-phenoxy)-acetic acid], the results for the concentration for half-maximal inhibition (IC50) against EP4 and against EP2 were 300 nM and 829 nM, respectively.

As to `CCOc1cc(-c2cc(NCCc3cccc4cc(C)n(C)c34)ncn2)ccc1OCC(=O)O` [Example 57, (4-{6-[2-(1,2-Dimethyl-1H-indol-7-yl)-ethylamino]-pyrimidin-4-yl}-2-ethoxy-phenoxy)-acetic acid], the IC50 against EP4 was 962 nM; against EP2, 508 nM.

For the compound `COc1ccc(CCNc2cc(-c3ccc(C(=O)O)c(OC4CCC4)c3)ncn2)c2ccccc12` [Example 58, 2-Cyclobutoxy-4-{6-[2-(4-methoxy-naphthalen-1-yl)-ethylamino]-pyrimidin-4-yl}-benzoic acid], the concentration for half-maximal inhibition (IC50) against EP4 was 401 nM; against EP2 it was 825 nM.

With `CCOc1cc(-c2cc(NCCc3ccc(OC)c4ccccc34)ncn2)ccc1OCC(=O)O` [Example 60, (2-Ethoxy-4-{6-[2-(4-methoxy-naphthalen-1-yl)-ethylamino]-pyrimidin-4-yl}-phenoxy)-acetic acid], the IC50 was 384 nM on EP4 and 845 nM against EP2.

As for `CCOc1cc(-c2cc(NCCc3cccc4cc(C)oc34)ncn2)ccc1OCC(=O)O` [Example 75, (2-Ethoxy-4-{6-[2-(2-methyl-benzofuran-7-yl)-ethylamino]-pyrimidin-4-yl}-phenoxy)-acetic acid], the half-inhibitory concentration (IC50) against EP4 was 889 nM; on EP2 it was 976 nM.

Regarding `CCOc1cc(-c2cc(NCCc3cccc4ccccc34)ncn2)ccc1OCC(=O)O` [Example 77], the IC50 on EP4 was 403 nM; on EP2 it was 418 nM.

With `CCOc1cc(-c2cc(NCCc3c(C)ccc4c3cnn4C)ncn2)ccc1OCC(=O)O` [Example 80, (4-{6-[2-(1,5-Dimethyl-1H-indazol-4-yl)-ethylamino]-pyrimidin-4-yl}-2-ethoxy-phenoxy)-acetic acid], the figures for the 50% inhibitory concentration (IC50) at EP4 and on EP2 were 495 nM and 338 nM, respectively.

Take `O=C(O)c1sc(-c2cc(NCCc3cccc4cccnc34)ncn2)cc1C(F)(F)F` [Example 82, 5-[6-(2-Quinolin-8-yl-ethylamino)-pyrimidin-4-yl]-3-trifluoromethyl-thiophene-2-carboxylic acid]: the IC50 amounted to 960 nM against EP4 and 987 nM at EP2.

For `Cc1ccc2c(cnn2C)c1CCNc1cc(-c2ccc(-c3c(O)c(=O)c3=O)cc2)ncn1` [Example 92, 3-(4-{6-[2-(1,5-Dimethyl-1H-indazol-4-yl)-ethylamino]-pyrimidin-4-yl}-phenyl)-4-hydroxy-cyclobut-3-ene-1,2-dione], the IC50 against EP4 amounted to 544 nM; on EP2, 287 nM.

As to `CCNC(=O)Nc1ccc(-c2cc(NCCc3c(OC)ccc4ncccc34)ncn2)cc1OC` [Example 98, 1-Ethyl-3-(2-methoxy-4-{6-[2-(6-methoxy-quinolin-5-yl)-ethylamino]-pyrimidin-4-yl}-phenyl)-urea], the IC50 came to 335 nM against EP4 and 354 nM at EP2.

Broadly, the IC50 is the concentration that gives 50% inhibition.

The values above are taken from patent US11446298B2, “Pyrimidine derivatives” (Idorsia Pharmaceuticals Ltd, priority 2017, dated 2022).
